The target of one test is T1, GR (Homo sapiens, UniProt P04150).
T1 sequence (P04150 1-777): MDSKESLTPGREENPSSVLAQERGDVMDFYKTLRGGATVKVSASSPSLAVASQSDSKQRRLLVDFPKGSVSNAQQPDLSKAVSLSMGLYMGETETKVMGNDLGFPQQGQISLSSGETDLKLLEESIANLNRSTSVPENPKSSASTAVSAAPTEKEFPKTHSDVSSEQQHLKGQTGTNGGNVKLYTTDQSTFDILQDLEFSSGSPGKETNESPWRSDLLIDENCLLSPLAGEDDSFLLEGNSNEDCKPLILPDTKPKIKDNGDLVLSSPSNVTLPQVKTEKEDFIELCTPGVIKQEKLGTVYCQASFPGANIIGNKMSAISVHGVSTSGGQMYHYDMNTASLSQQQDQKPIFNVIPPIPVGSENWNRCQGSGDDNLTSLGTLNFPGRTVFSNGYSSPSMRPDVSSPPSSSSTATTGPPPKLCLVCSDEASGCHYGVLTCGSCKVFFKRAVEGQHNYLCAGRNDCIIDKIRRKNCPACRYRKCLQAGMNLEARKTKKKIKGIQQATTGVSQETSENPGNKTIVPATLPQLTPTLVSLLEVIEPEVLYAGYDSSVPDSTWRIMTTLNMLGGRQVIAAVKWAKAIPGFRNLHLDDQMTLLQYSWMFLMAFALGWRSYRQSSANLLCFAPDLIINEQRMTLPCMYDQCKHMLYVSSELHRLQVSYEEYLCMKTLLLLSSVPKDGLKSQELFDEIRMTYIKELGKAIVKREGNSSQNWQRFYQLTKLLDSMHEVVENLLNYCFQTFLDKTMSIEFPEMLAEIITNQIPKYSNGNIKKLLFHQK
The note with it: cited from earlier work.

Test [1] concerns the target T2, glucocorticoid receptor (GR) (Mus musculus, UniProt P06537).
T2 construct: RNA transcripts were then extracted from mouse ears; from tissue; host or cells: ear skin of Balb/C mice (in vivo topical treatment)
T2 sequence (P06537 1-792): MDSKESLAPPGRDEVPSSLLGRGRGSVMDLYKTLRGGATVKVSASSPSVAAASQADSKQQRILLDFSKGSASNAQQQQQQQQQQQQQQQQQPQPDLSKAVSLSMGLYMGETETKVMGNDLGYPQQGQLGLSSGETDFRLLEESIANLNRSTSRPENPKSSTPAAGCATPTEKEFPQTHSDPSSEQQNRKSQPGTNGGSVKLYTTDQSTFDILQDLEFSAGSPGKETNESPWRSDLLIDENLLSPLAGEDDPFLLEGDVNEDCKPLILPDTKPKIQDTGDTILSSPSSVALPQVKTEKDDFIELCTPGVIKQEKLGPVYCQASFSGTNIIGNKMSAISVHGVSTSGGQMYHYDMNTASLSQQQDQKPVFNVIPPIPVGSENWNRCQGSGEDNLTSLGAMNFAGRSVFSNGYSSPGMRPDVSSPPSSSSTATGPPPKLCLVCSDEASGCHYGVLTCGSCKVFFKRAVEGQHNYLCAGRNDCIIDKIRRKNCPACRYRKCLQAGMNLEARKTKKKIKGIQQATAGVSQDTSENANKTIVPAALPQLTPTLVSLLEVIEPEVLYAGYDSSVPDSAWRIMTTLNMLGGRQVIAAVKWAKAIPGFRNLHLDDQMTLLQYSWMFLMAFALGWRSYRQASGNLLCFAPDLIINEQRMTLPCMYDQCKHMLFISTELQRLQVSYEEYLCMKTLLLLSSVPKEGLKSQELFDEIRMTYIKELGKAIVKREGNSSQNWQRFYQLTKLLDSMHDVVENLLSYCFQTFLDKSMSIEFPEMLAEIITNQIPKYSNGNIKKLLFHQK
Kind of test: In vivo transcriptional analysis (q-RT-PCR) of the three GR functions in mouse ears. Details: species or system Balb/C mice. The settings on record: topical 18 hours. On the procedure: RNA transcripts were then extracted from mouse ears and the transcripts of 4 genes were analyzed by q-RT-PCR: • (i) the directly GR-transactivated gene of the mTOR inhibitor REDD1, • (ii) the GR-directly transrepressed gene of keratin 5 (K5) and • (iii) the GR-indirectly “tethered” transrepressed genes of interleukin-1β (IL-1β) and interleukin-6 (IL-6), both being activated in presence of 12-O-tetradecanoylphorbol-13-acetate (TPA). Results

Test [2] concerns OVA-induced asthma-like allergic lung inflammation. Kind of test: Ovalbumin (OVA)-induced asthma-like allergic lung inflammation. The format is in vivo, mice. The settings on record: OVA model. On the procedure:
Glucocorticoids have been (Pearlman et al., 1997. Ann Allergy Asthma Immunol. 78(4):356-62), and are still, widely used in asthma therapy. In order to investigate the possible CpdX anti-inflammatory activity in vivo, mice were sensitized and challenged with either ovalbumin (OVA) or house dust mite (HDM) to induce an asthma-like allergic lung inflammation.
Mice were intraperitoneally sensitized with either 50 μg OVA together with alum or with alum alone on D0, D7 and D14. Mice were then subdivided into three groups, and on D19, D20 and D21, they were intranasally (i.n.) challenged with 10 μg OVA. The first and the second group received intranasally 0.5 mg/kg of body weight of Dex or CpdX respectively, while the third group served as a control.
On D22, the lung allergic inflammation was assessed for each mouse by examination of the bronchoalveolar lavage fluid (BAL). The total BAL cells, eosinophils, neutrophils, macrophages and lymphocytes were counted. RNA transcripts were extracted from lung samples and RNA transcripts of IL-1β, IL-6, IL-4, IL-5, IL-10, IL-13, Eotaxin, CCL4 and TNFα were analyzed by q-RT-PCR. Histological (with H&E staining) and immunohistochemical (with eosinophil-specific and neutrophil-specific antibodies) analyses of lung tissues were also carried out.

In the case of `COc1ccc(F)cc1C(C)(C)CC(O)(CNc1ccc2c(c1)COC2=O)C(F)(F)F` (racemic) [CpdX, 5-[4-(5-fluoro-2-methoxyphenyl)-2-hydroxy-4-methyl-2-(trifluoromethyl)pentylamino]-isobenzofuran-1(3H)-one], at GR, the “indirect tethered transrepression activity of the GR” value is reported as “still inducing”; the “transactivation and direct transrepression functions of the GR” value is on record as “does not induce”. Moreover, the “GR functions induced (direct transactivation, direct transrepression, indirect tethered transrepression)” value in test [1] (1 nmole/cm^2) is on record as “selectively exhibits an indirect tethered transrepression activity”. In addition, in test [1] (1 nmole/cm^2, vs Vehicle), the “K5 gene relative RNA expression (GR direct transrepression)” value is “unchanged” and the “REDD1 gene relative RNA expression (GR direct transactivation)” value was “unchanged”. The “eosinophils and neutrophils in lung (immunohistochemistry)” value in test [2] (data not shown) is on record as “similarly decreased”. Besides, the “number of macrophages in BAL” value in test [2] (intranasal 0.5 mg/kg, D22) is listed as “unchanged”. The “total number of BAL cells, eosinophils, neutrophils and lymphocytes” value in test [2] (intranasal 0.5 mg/kg, D22, vs control group) is “significantly decreased”. Further, the “peribronchiolar and perivascular inflammatory cell infiltration (histology)” value in test [2] (lung paraffin sections) is given as “strongly decreased”. For the same compound, the “lung expression of IL-1β, IL-6, IL-4, IL-5, IL-10, IL-13, Eotaxin, CCL4 and TNFα” value in test [2] (q-RT-PCR) is “significantly and similarly decreased”.

(Values after patent US11179363B2, “Non-steroidal selective glucocorticoid receptor agonistic modulators (SEGRAMs) and uses thereof” (ASSOCIATION POUR LA RECHERCHE À L'IGBMC (ARI), priority 2017, dated 2021).)
